Results reported in publication PMC4978154, “Phase I metabolites of mephedrone display biological activity as substrates at monoamine transporters” (British Journal of Pharmacology, 2016).
Read-outs that look alike come from different tables or passages of the source.

Tests used:
[1] = molecular target: T1, hDAT (Homo sapiens, UniProt Q01959); assay: Transporter uptake inhibition in HEK293 cells expressing hDAT; assay type: cell-based; settings: [3H]-MPP+ uptake; for IC50: mean (95% confidence interval)
T1 construct: expressed in transfected cells
Procedure: (§1) The generation of HEK293 cells stably expressing the human isoforms of DAT (hDAT) and NET (hNET) was carried out as described previously (Scholze et al., 2002). For SERT, the human isoform (hSERT) was cloned in frame with yellow fluorescent protein (Schmid et al., 2001). The generation of a stable cell line was performed as described by Hilber and colleagues (Hilber et al., 2005). HEK293 cells were maintained in humidified atmosphere (5% CO2, 37°C) in DMEM, supplemented with 10% heat‐inactivated FBS and penicillin (100 u 100 mL^−1) and streptomycin (100 μg 100 mL^−1). Selection pressure was maintained by adding geneticin (50 μg·mL^−1) to the cell culture media.
(§2) Uptake experiments were conducted as described previously (Sitte et al., 2001) with minor modifications. In brief, HEK293 cells expressing hDAT, hNET or hSERT were seeded into poly‐D‐lysine (PDL) coated 96‐well plates at a density of 40 000 cells per well. The next day, DMEM was aspirated and replaced with Krebs HEPES buffer (KHB, 25 mM HEPES, 120 mM NaCl, 5 mM KCl, 1.2 mM CaCl2, and 1.2 mM MgSO4, 5 mM D‐glucose, pH adjusted to 7.3 with NaOH) (200 μL per well), and cells were pre‐incubated with various concentrations of mephedrone or its metabolites for 5 min (50 μL per well). Subsequently, 0.1 μM of [^3H]‐5‐HT or 0.02 μM of [^3H]‐MPP^+ were added, and uptake was terminated after 1 (hSERT) or 3 min (hDAT, hNET) by washing the cells with 200 μL of ice‐cold KHB. Cells were lysed with 1% SDS, and tritium uptake was determined by scintillation counting. Nonspecific uptake was determined in the presence of 10 μM paroxetine (hSERT) or 10 μM mazindol (hDAT and hNET).
(§3) Calculations were performed using Microsoft Excel® 2010 (Microsoft Corporation, Redmond, WA, USA) and GRAPHPAD PRISM 5.0. (GraphPad Software Inc., La Jolla, CA, USA). IC50 values for uptake inhibition and EC50 values for release were determined by nonlinear regression fits. Release data expressed as AUC were analysed by one‐way ANOVA followed by Bonferroni's multiple comparison test. Microdialysis and locomotor data were analysed by two‐way ANOVA (drug treatment × time) followed by Bonferroni's test. The effect of monensin treatment on basal efflux of tritiated substrate was analysed with the Mann–Whitney test. P values less than 0.05 (i.e. P < 0.05) were considered significant. The data and statistical analysis comply with the recommendations on experimental design and analysis in pharmacology (Curtis et al., 2015).

[2] = molecular target: T2, hSERT (Homo sapiens, UniProt P31645); assay: Transporter uptake inhibition in HEK293 cells expressing hSERT; assay type: cell-based; settings: [3H]-5-HT uptake; for IC50: mean (95% confidence interval)
T2 construct: yellow fluorescent protein (YFP); expressed in transfected cells
Procedure: as §1, §2, §3

[3] = molecular target: T3, hNET (Homo sapiens, UniProt P23975); assay: Transporter release (superfusion) assay in HEK293 cells expressing hNET; assay type: cell-based; settings: test drug 10 μM, monensin 10 μM; post hoc Bonferroni
T3 construct: expressed in transfected cells
Procedure: as §1
Superfusion experiments were performed as described previously (Scholze et al., 2002). Briefly, HEK293 cells expressing the desired transporter were seeded at a density of 40 000 cells per well onto poly‐D‐lysine‐coated 5 mm glass cover slips in 96‐well plates 24 h prior to the experiment. Cells were preloaded with [^3H]‐MPP^+ (0.1 μM, hDAT and hNET) or [^3H]‐5‐HT (0.4 μM, hSERT) for 20 min at 37°C in a final volume of 100 μL per well. Subsequently, glass coverslips were transferred into small superfusion chambers (volume of 200 μL) and superfused with KHB at 25°C with a superfusion rate of 0.7 mL·min^−1 for 40 min to establish a stable basal efflux. After washout, the collection of 2‐min fractions was initiated. After the first three basal fractions, monensin (10 μM) or solvent was added for four fractions. […] Finally, the cells were lysed in 1% SDS to determine the total radioactivity. Radioactivity per fraction was assessed by a liquid scintillation counter and expressed as fractional release, that is, the percentage of released ^3H in relation to total ^3H present at the beginning of the fraction (Sitte et al., 2000). For analysis, release was expressed as AUC.
as §3, with “(GraphPad Software Inc., La Jolla, CA, USA).” left out, “P values less than 0.05 (i.e. P < 0.05) were considered significant. The data and statistical analysis comply with the recommendations on experimental design and analysis in pharmacology (Curtis et al., 2015).” left out
Data from uptake inhibition assays cannot distinguish whether test drugs act as non‐transported inhibitors or transportable substrates, which evoke release (Scholze et al., 2000; Sitte et al., 2000; Baumann et al., 2013). […] As described previously, efflux of preloaded [^3H]‐MPP^+ or [^3H]‐5‐HT was monitored in the presence or absence of monensin (10 μM) (Scholze et al., 2000). […]

[4] = forensic traffic case, ref Pedersen et al., 2013, cited from earlier work; for blood concentration, first case: parent drug:metabolite 28:2; for blood concentration, second case: parent drug:metabolite 29:9
[5] = molecular target: T2, hSERT; assay: Transporter release (superfusion) assay in HEK293 cells expressing hSERT; assay type: cell-based; settings: test drug 10 μM, monensin 10 μM; post hoc Bonferroni
Procedure: as §1
Superfusion experiments were performed as described previously (Scholze et al., 2002). […] Finally, the cells were lysed in 1% SDS to determine the total radioactivity. Radioactivity per fraction was assessed by a liquid scintillation counter and expressed as fractional release, that is, the percentage of released ^3H in relation to total ^3H present at the beginning of the fraction (Sitte et al., 2000). For analysis, release was expressed as AUC.
Calculations were performed using Microsoft Excel® 2010 (Microsoft Corporation, Redmond, WA, USA) and GRAPHPAD PRISM 5.0. […] IC50 values for uptake inhibition and EC50 values for release were determined by nonlinear regression fits. […]

[6] = IC50 on uptake mediated by hDAT
[7] = IC50 on uptake mediated by hSERT

T2 sequence (P31645 whole entry): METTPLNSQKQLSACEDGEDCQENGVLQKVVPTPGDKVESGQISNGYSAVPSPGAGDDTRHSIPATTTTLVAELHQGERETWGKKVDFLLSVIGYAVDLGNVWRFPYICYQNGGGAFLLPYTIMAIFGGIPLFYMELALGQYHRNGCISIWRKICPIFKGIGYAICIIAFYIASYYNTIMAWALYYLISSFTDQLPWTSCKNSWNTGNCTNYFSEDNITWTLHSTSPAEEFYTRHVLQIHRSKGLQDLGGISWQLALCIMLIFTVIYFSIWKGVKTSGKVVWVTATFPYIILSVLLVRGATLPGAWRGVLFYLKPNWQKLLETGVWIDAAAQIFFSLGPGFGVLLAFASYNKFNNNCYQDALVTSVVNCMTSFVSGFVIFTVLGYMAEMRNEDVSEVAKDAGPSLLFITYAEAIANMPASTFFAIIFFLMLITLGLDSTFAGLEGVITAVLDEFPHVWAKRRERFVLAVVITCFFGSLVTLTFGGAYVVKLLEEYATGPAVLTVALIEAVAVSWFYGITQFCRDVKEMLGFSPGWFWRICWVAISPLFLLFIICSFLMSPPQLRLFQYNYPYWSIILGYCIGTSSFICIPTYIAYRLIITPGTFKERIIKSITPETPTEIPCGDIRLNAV
T1 sequence (Q01959 whole entry): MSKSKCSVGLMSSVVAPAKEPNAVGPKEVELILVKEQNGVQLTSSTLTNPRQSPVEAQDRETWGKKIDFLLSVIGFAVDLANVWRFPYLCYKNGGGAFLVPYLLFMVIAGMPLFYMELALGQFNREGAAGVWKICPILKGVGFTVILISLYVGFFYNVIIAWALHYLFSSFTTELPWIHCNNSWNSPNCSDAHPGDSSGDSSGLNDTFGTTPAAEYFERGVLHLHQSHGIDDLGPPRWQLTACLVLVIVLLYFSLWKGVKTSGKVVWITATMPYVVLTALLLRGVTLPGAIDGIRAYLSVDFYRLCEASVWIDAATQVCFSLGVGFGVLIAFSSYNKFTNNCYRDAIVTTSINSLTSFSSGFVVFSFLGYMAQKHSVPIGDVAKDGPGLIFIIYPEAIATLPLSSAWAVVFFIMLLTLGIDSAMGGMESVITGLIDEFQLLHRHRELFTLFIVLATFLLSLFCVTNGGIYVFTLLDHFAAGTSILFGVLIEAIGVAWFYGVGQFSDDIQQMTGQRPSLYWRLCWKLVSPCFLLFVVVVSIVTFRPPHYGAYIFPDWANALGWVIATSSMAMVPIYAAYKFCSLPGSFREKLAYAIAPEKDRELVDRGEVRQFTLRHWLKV
T3 sequence (P23975 whole entry, the tested form may be a part): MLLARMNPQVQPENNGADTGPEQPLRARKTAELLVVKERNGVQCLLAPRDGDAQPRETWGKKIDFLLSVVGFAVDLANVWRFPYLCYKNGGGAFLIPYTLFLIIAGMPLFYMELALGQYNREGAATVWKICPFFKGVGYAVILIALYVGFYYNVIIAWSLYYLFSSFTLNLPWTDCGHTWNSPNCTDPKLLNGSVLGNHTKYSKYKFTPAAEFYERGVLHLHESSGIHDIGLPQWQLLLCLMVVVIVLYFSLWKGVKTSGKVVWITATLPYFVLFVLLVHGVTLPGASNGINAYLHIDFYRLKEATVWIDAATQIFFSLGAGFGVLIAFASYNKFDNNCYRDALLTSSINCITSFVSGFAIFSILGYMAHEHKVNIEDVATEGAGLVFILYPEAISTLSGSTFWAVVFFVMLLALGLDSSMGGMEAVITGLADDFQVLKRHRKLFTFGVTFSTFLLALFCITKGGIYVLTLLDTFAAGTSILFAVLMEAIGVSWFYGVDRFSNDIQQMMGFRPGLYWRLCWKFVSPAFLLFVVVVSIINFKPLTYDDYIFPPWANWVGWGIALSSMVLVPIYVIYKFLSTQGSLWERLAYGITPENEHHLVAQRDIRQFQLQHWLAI

| Structure (SMILES) | efficacy of uptake inhibition at hDAT [1] | IC50 ([1]; read-out: IC50 on uptake mediated by hDAT) | efficacy of uptake inhibition at hSERT [2] | IC50 ([2]; read-out: IC50 on uptake mediated by hSERT) | enhancement by monensin of drug-evoked [3H]-MPP+ release at hNET (AUC) [3] | blood concentration, first case [4] | blood concentration, second case [4] | IC50 [1, 6] | IC50 [2, 7] | enhancement by monensin of drug-evoked [3H]-5-HT release at hSERT (AUC) [5] |
| --- | --- | --- | --- | --- | --- | --- | --- | --- | --- | --- |
| CNC(C)C(=O)c1ccc(CO)cc1.Cl (centres unmarked) [4‐OH‐mephedrone, 1‐(4‐(hydroxymethyl)phenyl)‐2‐(methylamino)propan‐1‐one hydrochloride] | fully efficacious inhibitors of uptake | 2920 nM | fully efficacious inhibitors of uptake | 73.5 µM | significant | 2 µg/kg | 9 µg/kg | – | – | – |
| CNC(C)C(=O)c1ccc(C)cc1.Cl (centres unmarked) [Mephedrone, 2‐Methylamino‐1‐(p‐tolyl)propan‐1‐one hydrochloride] | fully efficacious inhibitors of uptake | – | fully efficacious inhibitors of uptake | – | significant | 28 µg/kg | 29 µg/kg | 770 nM | 7.83 µM | significant |
| Cc1ccc(C(=O)C(C)N)cc1.Cl (centres unmarked) [Nor‐mephedrone, 2‐amino‐1‐(p‐tolyl)propan‐1‐one hydrochloride] | fully efficacious inhibitors of uptake | – | fully efficacious inhibitors of uptake | – | significant | – | – | 6350 nM | 10.6 µM | – |
